Results reported in ChEMBL document CHEMBL1151696 (Bioorg Med Chem, 2008).
Activity calls are given as the source filed them. The rule behind the calls is not given here.

How the values were obtained:
Sindbis virus = assay type: functional, organism-based
[1] = system: Vesicular stomatitis virus; assay type: functional, organism-based
Glutamate NMDA receptor [2] = experiment: Antagonist activity at NMDA receptor in cerebellar granule neurons assessed as inhibition of glutamate-induced increase in intracellular calcium concentration by fluorometric assay; assay type: functional, cell-based
Human alphaherpesvirus 1 = assay type: functional, organism-based
Human respirovirus 3 = assay type: functional, organism-based
Coxsackievirus B4 = assay type: functional, organism-based
Human alphaherpesvirus 2 = assay type: functional, organism-based
Glutamate NMDA receptor [3] = experiment: Antagonist activity at NMDA receptor in cerebellar granule neurons assessed as inhibition of NMDA-induced increase in intracellular calcium concentration by fluorometric assay; assay type: functional, cell-based
[4] = system: Respiratory syncytial virus; assay type: functional, organism-based
Rattus norvegicus = species: Rattus norvegicus; experiment: Inhibition of [3H]dopamine uptake in Wistar rat striatum synaptosomes at 100 uM by scintillation spectrometry; assay type: functional, subcellular; design: scale not given: the % may be the effect or the level left
Punta Toro virus = assay type: functional, organism-based
Feline coronavirus = assay type: functional, organism-based
[5] = system: Mammalian orthoreovirus 1; assay type: functional, organism-based

Row | SMILES | Activity (Sindbis virus) | Activity [1] | IC50 (Glutamate NMDA receptor [2]) [µM] | Activity (Human alphaherpesvirus 1) | Activity (Human respirovirus 3) | Activity (Coxsackievirus B4) | Activity (Human alphaherpesvirus 2) | IC50 (Glutamate NMDA receptor [3]) [µM] | Activity [4] | Activity (Rattus norvegicus) [%] | Activity (Punta Toro virus) | Activity (Feline coronavirus) | Activity [5]
1 | COc1ccc(CNC23CC4CC(CC2C4)C3)cc1 | inactive | inactive | > 200 | inactive | inactive | inactive | inactive | > 200 | inactive | 63.9 | inactive | inactive | inactive
2 | COc1cccc(CNC23CC4CC(CC2C4)C3)c1 | inactive | inactive | > 500 | inactive | inactive | inactive | inactive | 87 | inactive | 45.8 | inactive | inactive | inactive
3 | CN(C)CC12CC3(C)CC1CC3(C)C2 | inactive | inactive | > 200 | inactive | inactive | inactive | inactive | > 200 | inactive |  | inactive | inactive | inactive
4 | c1csc(CNC23CC4CC(CC2C4)C3)c1 | inactive | inactive | 384 | inactive | inactive | inactive | inactive | 17 | inactive | 47.7 | inactive | inactive | inactive
5 | CC12CC3CC1(C)CC3(N)C2 | inactive | inactive | 274 | inactive | inactive | inactive | inactive | 23 | inactive | 54.8 | inactive | inactive | inactive
6 | CN(C)CC12CC3CC(CC1C3)C2 | inactive | inactive | > 200 | inactive | inactive | inactive | inactive | > 200 | inactive | 62.5 | inactive | inactive | inactive
7 | COc1ccccc1CNC12CC3CC(CC1C3)C2 | inactive | inactive | > 500 | inactive | inactive | inactive | inactive | 92 | inactive | 58.3 | inactive | inactive | inactive
8 | CNCC12CC3CC(CC1C3)C2 | inactive | inactive | > 500 | inactive | inactive | inactive | inactive | 71 | inactive | 76.3 | inactive | inactive | inactive
9 | c1ccc(CNC23CC4CC(CC2C4)C3)cc1 | inactive | inactive | > 200 | inactive | inactive | inactive | inactive | > 200 | inactive | 31.7 | inactive | inactive | inactive
10 | CC12CC3CC1(C)CC3(CNC(=N)N)C2 | inactive | inactive | 104 | inactive | inactive | inactive | inactive | 7.1 | inactive |  | inactive | inactive | inactive
11 | CN(Cc1ccccc1)C12CC3(C)CC1CC3(C)C2 | inactive | inactive | > 200 | inactive | inactive | inactive | inactive | > 200 | inactive |  | inactive | inactive | inactive
12 | CC12CC3CC1(C)CC3(NCc1cccs1)C2 | inactive | inactive | 204 | inactive | inactive | inactive | inactive | 80 | inactive |  | inactive | inactive | inactive
13 | CC12CC3CC1(C)CC3(CN1CCCCC1)C2 | inactive | inactive | > 200 | inactive | inactive | inactive | inactive | > 200 | inactive | 39.8 | inactive | inactive | inactive
14 | CNC12CC3(C)CC1CC3(C)C2 | inactive | inactive |  | inactive | inactive | inactive | inactive | 35 | inactive | 74.6 | inactive | inactive | inactive
15 | N=C(N)NCC12CC3CC(CC1C3)C2 | inactive | inactive |  | inactive | inactive | inactive | inactive |  | inactive | 119 | inactive | inactive | inactive
16 | CC12CC3CC1(C)CC3(NCc1ccccc1)C2 | inactive | inactive | 143 | inactive | inactive | inactive | inactive | 70 | inactive |  | inactive | inactive | inactive
17 | CC12CC3CC(C)(C1)CC(N)(C3)C2 |  |  |  |  |  |  |  |  |  | 53.7 |  |  | 
18 | NC(N)=NCC12CC3CC(CC1C3)C2 |  |  | 453 |  |  |  |  | 25 |  |  |  |  | 
